Test results from US4113946A, “Δ^2,3 -1,4-Morpholine-2-carboxylic acid derivatives as antibacterial agents” (Bristol-Myers Company, priority 1977, dated 1978).
Values after ≈ are worked out from the molar mass of the structure shown. Where a name gives a salt, the structure may show the parent alone. Read-outs that look alike come from different tables or passages of the source.

Columns and labels:
D. pneumoniae A9585 = experiment: M.I.C. by tube dilution, D. pneumoniae A9585; assay type: cell-based; conditions: Streptococcus pneumoniae, A9585
Str. pyogenes A9604 = experiment: M.I.C. by tube dilution, Str. pyogenes A9604; assay type: cell-based; conditions: Streptococcus pyogenes, +5% serum, 50% Nutrient Broth - 45% Antibiotic Assay Broth, overnight 37° C., read-out: M.I.C.
S. aureus Smith A9537 = experiment: M.I.C. by tube dilution, S. aureus Smith A9537; assay type: cell-based; conditions: Staphylococcus aureus
S. aureus BX1633-2 A9606 = experiment: M.I.C. by tube dilution, S. aureus BX1633-2 A9606; assay type: cell-based; conditions: Staphylococcus aureus, overnight 37° C.
Sal. enteritidis A9531 = experiment: M.I.C. by tube dilution, Sal. enteritidis A9531; assay type: cell-based; conditions: Salmonella enterica, ENTERITIDIS
E. coli Juhl A15119 = experiment: M.I.C. by tube dilution, E. coli Juhl A15119; assay type: cell-based; conditions: Escherichia coli, JUHLA15119
E. coli A9675 = experiment: M.I.C. by tube dilution, E. coli A9675; assay type: cell-based; conditions: Escherichia coli
K. pneumoniae A9977 = experiment: M.I.C. by tube dilution, K. pneumoniae A9977; assay type: cell-based; conditions: Klebsiella pneumoniae
K. pneumoniae A15130 = experiment: M.I.C. by tube dilution, K. pneumoniae A15130; assay type: cell-based; conditions: Klebsiella pneumoniae
Pr. mirabilis A9900 = experiment: M.I.C. by tube dilution, Pr. mirabilis A9900; assay type: cell-based; conditions: Proteus mirabilis
Pr. morganii A15153 = experiment: M.I.C. by tube dilution, Pr. morganii A15153; assay type: cell-based; conditions: Morganella morganii
Ps. aeruginosa A9843A = experiment: microbe, parasite or virus in culture; assay type: cell-based; conditions: Pseudomonas aeruginosa
Ser. marcescens A20019 = experiment: M.I.C. by tube dilution, Ser. marcescens A20019; assay type: cell-based; conditions: Serratia marcescens
Ent. cloacae A9656 = experiment: M.I.C. by tube dilution, Ent. cloacae A9656; assay type: cell-based; conditions: Enterobacter cloacae
Ent. cloacae A9657 = experiment: M.I.C. by tube dilution, Ent. cloacae A9657; assay type: cell-based; conditions: Enterobacter cloacae
Ent. cloacae A9659 = experiment: M.I.C. by tube dilution, Ent. cloacae A9659; assay type: cell-based; conditions: Enterobacter cloacae, A9659, overnight 37° C.
[1] = test system: S. aureus meth.-resist; A15097; experiment: M.I.C. by tube dilution, S. aureus meth.-resist A15097; assay type: cell-based; conditions: Staphylococcus aureus, at 10^-3 dil'n, overnight 37° C.
St. pyrogenes = experiment: Inhibition of St. pyrogenes; assay type: cell-based; conditions: read-out: found to inhibit St. pyrogenes at a concentration of
in vivo = conditions: mouse, po, 100 mg/kg
[2] = +5% serum, 50% Nutrient Broth - 45% Antibiotic Assay Broth, overnight 37° C., read-out: M.I.C.
[3] = SMITHA9537, +50% serum, at 10^-4 dilution, overnight 37° C.
[4] = SMITHA9537, at 10^-4 dilution, overnight 37° C., read-out: M.I.C.
[5] = at 10^-4 dilution, overnight 37° C., read-out: M.I.C.
[6] = overnight 37° C., read-out: M.I.C.
[7] = A9657, overnight 37° C., read-out: M.I.C.
[8] = SMITHA9537, at 10^-4 dilution, overnight 37° C.

SMILES	MIC (D. pneumoniae A9585; [2]) [µg/mL]	MIC (Str. pyogenes A9604) [µg/mL]	MIC (S. aureus Smith A9537; [3]) [µg/mL]	MIC (S. aureus Smith A9537; [4]) [µg/mL]	MIC (S. aureus BX1633-2 A9606; BX16332A9606, at 10^-2 dil'n) [µg/mL]	MIC (S. aureus BX1633-2 A9606; BX16332A9606, at 10^-3 dil'n) [µg/mL]	MIC (Sal. enteritidis A9531) [µg/mL]	MIC (E. coli Juhl A15119; [5]) [µg/mL]	MIC (K. pneumoniae A9977) [µg/mL]	MIC (Pr. mirabilis A9900) [µg/mL]	MIC (Pr. morganii A15153; [5]) [µg/mL]	MIC (Ps. aeruginosa A9843A) [µg/mL]	MIC [1] [µg/mL]	MIC (E. coli Juhl A15119) [µg/mL]	MIC (E. coli A9675) [µg/mL]	MIC (K. pneumoniae A15130) [µg/mL]	MIC (Ser. marcescens A20019) [µg/mL]	MIC (Ent. cloacae A9656) [µg/mL]	MIC (Ent. cloacae A9657; A9657) [µg/mL]	MIC (Ent. cloacae A9659) [µg/mL]	also measured
CC1=C(C(=O)O)N2C(=O)[C@@H](NC(=O)COc3ccccc3)[C@H]2CO1 (relative stereo) [BC-L8, 7β-phenoxyacetamido-3-methyl-O-2-isocephem-4-carboxylic acid]	0.5 (≈ 1.5 µM)	0.5 (≈ 1.5 µM)	2 (≈ 6.02 µM)	0.5 (≈ 1.5 µM)	32 (≈ 96.3 µM)	2 (≈ 6.02 µM)	8 (≈ 24.1 µM)	63 (≈ 190 µM)	32 (≈ 96.3 µM)	16 (≈ 48.1 µM)	500 (≈ 1500 µM)	500 (≈ 1500 µM)	32 (≈ 96.3 µM)								MIC (E. coli A9675; [5]): 250 µg/mL (≈ 752 µM); MIC (K. pneumoniae A15130; [5]): 500 µg/mL (≈ 1500 µM); MIC (Ser. marcescens A20019; [5]): 500 µg/mL (≈ 1500 µM); MIC (Ent. cloacae A9656; [6]): 500 µg/mL (≈ 1500 µM); MIC (Ent. cloacae A9657; [7]): 63 µg/mL (≈ 190 µM); MIC (Ent. cloacae A9659; read-out: M.I.C.): 500 µg/mL (≈ 1500 µM)
COC(=O)CC1=C(C(=O)O)N2C(=O)[C@@H](NC(=O)COc3ccccc3)[C@H]2CO1 (relative stereo) [BC-L33, 7β-Phenoxyacetamido-3-carbomethoxymethylene-Δ^3 -O-2-isocephem-4-carboxylic acid]	0.06 (≈ 0.154 µM)	0.06 (≈ 0.154 µM)	1 (≈ 2.56 µM)	0.25 (≈ 0.64 µM)	> 125	16 (≈ 41 µM)	8 (≈ 20.5 µM)			32 (≈ 82 µM)		> 125	> 125	125 (≈ 320 µM)	> 125	> 125	> 125	> 125	> 125	> 125	MIC (K. pneumoniae A9977; [5]): 63 µg/mL (≈ 161 µM); MIC (Pr. morganii A15153): > 125 µg/mL
CC1=C(C(=O)O)N2C(=O)[C@@H](N)[C@H]2CO1 (relative stereo) [BC-L61, 7β-Amino-3-methyl-Δ^3 -O-2-isocephem-4-carboxylic acid]																					MIC (D. pneumoniae A9585; read-out: found to inhibit D. pneumoniae A9585 at a concentration of): > 8 µg/mL; MIC (S. aureus Smith A9537; SMITHA9537, read-out: found to inhibit S. aureus A9537 at a concentration of): > 125 µg/mL; MIC (E. coli Juhl A15119; read-out: found to inhibit E. coli A15119 at a concentration of): > 125 µg/mL; MIC (St. pyrogenes): > 8 µg/mL
CC1=C(C(=O)O)N2C(=O)[C@@H](NC(=O)[C@H](N)c3ccccc3)[C@H]2CO1 [BC-L9, 7β-(D-α-aminophenylacetamido)-3-methyl-Δ^3 -O-2-isocephem-4-carboxylic acid hydrochloride]	0.5	0.5	16		32	8	16		16		250	> 500	32	32					32	125	MIC (S. aureus Smith A9537; [8]): 2 µg/mL; MIC (E. coli A9675; [5]): 63 µg/mL; MIC (K. pneumoniae A15130; [5]): 63 µg/mL; MIC (Pr. mirabilis A9900; [5]): 63 µg/mL; MIC (Ser. marcescens A20019; [5]): 500 µg/mL; MIC (Ent. cloacae A9656; [6]): 500 µg/mL
O=C(COc1ccccc1)NC1C(=O)N2C(C(=O)O)=C(Cc3ccccc3)OCC12 (stereo not drawn) [BC-L17, 7β-phenoxyacetamido-3-benzyl-Δ^3 -O-2-isocephem-4-carboxylic acid]	0.25 (≈ 0.612 µM)	0.25 (≈ 0.612 µM)	1 (≈ 2.45 µM)	0.25 (≈ 0.612 µM)	> 125	8 (≈ 19.6 µM)	32 (≈ 78.4 µM)		> 125	> 125		> 125	125 (≈ 306 µM)	> 125	> 125	> 125	> 125	> 125	> 125	> 125	MIC (Pr. morganii A15153): > 125 µg/mL
CC1=C(C(=O)O)N2C(=O)[C@@H](NC(=O)C(N)c3ccccc3)[C@H]2CO1 (stereo partly drawn) [BC-L45, 7β-(α-amino-α-phenylacetamido)-3-methyl-Δ^3 -O-2-isocephem-4-carboxylic acid]	< 0.25	< 0.25	8 (≈ 24.1 µM)			8 (≈ 24.1 µM)		4 (≈ 12.1 µM)		8 (≈ 24.1 µM)	63 (≈ 190 µM)	> 125			32 (≈ 96.6 µM)	8 (≈ 24.1 µM)	> 125	125 (≈ 377 µM)		125 (≈ 377 µM)	MIC (S. aureus Smith A9537; [8]): 1 µg/mL (≈ 3.02 µM); MIC (S. aureus BX1633-2 A9606; BX16332A9606, at 10^-2 dil'n, read-out: M.I.C.): 63 µg/mL (≈ 190 µM); MIC (Sal. enteritidis A9531; [5]): 4 µg/mL (≈ 12.1 µM); MIC (K. pneumoniae A9977; [5]): 4 µg/mL (≈ 12.1 µM); MIC (Ent. cloacae A9657; [7]): 4 µg/mL (≈ 12.1 µM); MIC ([1]; read-out: M.I.C.): 63 µg/mL (≈ 190 µM); concentration at 0.5 h (in vivo): 19400 ng/mL; concentration at 1 h (in vivo): 15700 ng/mL; concentration at 2 h (in vivo): 7300 ng/mL; concentration at 3.5 h (in vivo): 2900 ng/mL
O=C(COc1ccccc1)NC1C(=O)N2C(C(=O)O)=C(CCc3ccccc3)OCC12 (stereo not drawn) [BC-L54, 7β-phenoxyacetamido-3-phenethyl-Δ^3 -O-2-isocephem-4-carboxylic acid]	0.03 (≈ 0.071 µM)	0.03 (≈ 0.071 µM)		0.06 (≈ 0.142 µM)	> 125	8 (≈ 18.9 µM)	> 125	0.5 (≈ 1.18 µM)	> 125	> 125		> 125	125 (≈ 296 µM)		> 125	> 125	> 125	> 125	> 125	> 125	MIC (S. aureus Smith A9537; SMITHA9537, +50% serum, at 10^-4 dilution, overnight 37° C., read-out: M.I.C.): 4 µg/mL (≈ 9.47 µM); MIC (Pr. morganii A15153): > 125 µg/mL
